Experimental data reported in US20240318134A1, “IN VITRO GENERATION OF ORGANIZED 3D CELL STRUCTURES INCLUDING HEAD-TRUNK EMBRYO-LIKE STRUCTURES, USING EPIGENETIC REMODELING FACTORS-MICROFLUIDIC PLATFORM SUITABLE FOR THEIR GENERATION” (INSTITUT PASTEUR, priority 2021, published 2024).

Key:
[1] = system: mouse ESC-derived spheroids; test: Marker expression and cell types of spheroids prepared with SUMO E1 inhibitor; format: cell-based; conditions: spheroids prepared with TAK-981; same as with ML-792
Protocol: On Day 1: first round. 500 000 ES R1 cells were plated per well well of a gelatin-coated 6-well plate in 2 ml of serum+Lif medium, supplemented with 0.1 μM of TAK-981. On Day 2, medium was replaced (aspirated) to refresh treatment (2 mL of Serum+Lif medium, supplemented with 0.1 μM of TAK-981 were added). After 48 h of treatment, on Day 3, the medium was aspirated and wells were rinsed twice with PBS then cells were allowed to recover in 2 ml of added serum+Lif. 6 days after the end of the first round, cells were similarly counted and plated for a 2nd round of TAK-981 (for example starting on Day 9 from the start of first round). On Day 9, 500 000 ES R1 cells were seeded per well on a gelatin-coated 6-well plate in 2 mL of Serum+Lif medium, supplemented with 0.1 μM of TAK-981 On day 10, the medium was aspirated and 2 ml of serum+Lif medium were added, supplemented with 0.1 μM of TAK-981 After 48 h of treatment (on Day 11), the medium was aspirated and wells were rinsed twice with PBS then cells were allowed to recover in 2 ml of N2B27+Lif medium that were added. Culture was carried out in N2B27+Lif medium.
(§1) cDNA was generated with a High-Capacity cDNA Reverse Transcription Kit (Applied Biosystems #4368814) from 500 ng to […] of total RNA purified by Trizol extraction. Quantitative real-time PCR analysis was performed with SYBR Green PCR master mix (Applied Biosystems #4309155) and the primer sets indicated in Supplementary Table 7 using cDNA or genomic DNA (local ChIP). Quantitative real-time PCR analysis was performed on a CFX96 Touch Real-Time PCR Detection System (Bio-Rad) or a QuantStudio 6 Flex Real-Time PCR System (Applied Biosystems).

mouse ESCs (ES R1 cells) = test: Generating adherent spheroids from mouse ESCs by two 48 h rounds of SUMO E1 inhibitor followed by medium switch; format: cell-based; conditions: two rounds of 48 h treatment in serum+Lif, then switch to N2B27+Lif; ML-792 2.5 μM, TAK-981 0.1 μM
Protocol: • Using ML-792 as hypoSUMOylation agent (SUMO E1 enzyme inhibitor): ESCs (ES R1 cells-129X1×129S1—ATCC) were dissociated with Trypsin-EDTA and plated (2.5 million cells in 100 mm dish) in serum+Lif medium supplemented with 2.5 μM ML-792 (Takeda Pharmaceuticals International Co.). Medium was replaced the next day to refresh treatment. After 48 h of treatment, plates were rinsed twice with PBS then cells were allowed to recover in serum+Lif. 5 days after the end of the first round, cells were similarly counted and plated for a 2nd round of ML-792. After 48 h of treatment, plates were rinsed twice with PBS then cells were allowed to recover in N2B27+Lif medium. […] By contrast the following specific parameters are taken into consideration with TAK-981:
On Day 1: first round. 500 000 ES R1 cells were plated per well well of a gelatin-coated 6-well plate in 2 ml of serum+Lif medium, supplemented with 0.1 μM of TAK-981. On Day 2, medium was replaced (aspirated) to refresh treatment (2 mL of Serum+Lif medium, supplemented with 0.1 μM of TAK-981 were added). After 48 h of treatment, on Day 3, the medium was aspirated and wells were rinsed twice with PBS then cells were allowed to recover in 2 ml of added serum+Lif. 6 days after the end of the first round, cells were similarly counted and plated for a 2nd round of TAK-981 (for example starting on Day 9 from the start of first round). […]

Nanog = Nanog expression at D8 after a round of hypoSUMOylation followed by 5-azacytidine treatment; format: cell-based, mouse; conditions: 0.1 μM for 5 days after the first wave of hypoSUMOylation
Dnmt3a = Dnmt3a gene expression upon ML-792 treatment (siSall4 experiment); format: cell-based, mouse; conditions: ML-792 treatment for 48 h; induction reduced by Sall4 knockdown
Protocol: as §1

[2] = system: whole genome methylated CG fraction; test: Genome-wide DNA methylation profiling (Methyl-seq) during the hypoSUMOylation protocol; format: cell-based, mouse; conditions: D1 to D10 of the hypoSUMOylation protocol
Protocol: DNA was extracted and purified from 2 million cells for each condition with the Quick-DNA Midiprep Plus Kit (Zymo Research D4075) following manufacturer's instructions. DNA was quantified with a NanoDrop ND-1000 (ThermoFisher Scientific). The NEBNext Enzymatic Methyl-seq Kit (New England Biolabs #E7120S) was used to prepare libraries for detection of 5-mC and 5-hmC. 200 ng of DNA from each sample were sheared to 275 bp fragments with an E220 Focused-ultrasonicator (Covaris) with the following settings: Duty Factor, 10%—Peak Incident Power, 175 W—Cycles per burst, 200—Duration, 100 sec. Fragment size was validated by a 4200 TapeStation System (Agilent Technologies). The NEBNext Enzymatic Methyl-seq Kit workflow was then followed, using the sodium hydroxide option for the denaturation step. The size distribution and concentration of the libraries was determined by TapeStation. The libraries were sequenced on an Illumina HiSeq4000 sequencer as paired-end 100 base reads following Illumina's instructions. […]
Methyl-seq data were processed with the Bismark pipeline^62 using bowtie2 aligner^64 with the default parameters. Biological triplicates were merged and CG sites with at least 5 reads were kept for downstream analyses. Methylated and unmethylated CG sites were counted within predetermined windows (bin or interval) and a binomial test was used to compare different timepoints or regions. […]

[3] = system: global level of SUMOylation in mouse ESCs; test: Immunoblots of SUMO1 and SUMO2/3 conjugates in treated ESCs; format: cell-based; conditions: D3 and D10, after first and second 48 h treatment; restored at D8 after withdrawal
Protocol: Cells were collected and directly lysed in Laemmli buffer (Bio-Rad #161-0747). Proteins were quantified using Pierce 660 nm Protein Assay (ThermoFisher Scientific #22662) according to manufacturer's instructions. Equal amounts of proteins were loaded on gels and good equilibration of the different samples was assessed by Ponceau staining after membrane transfer. Antibodies against SUMO1 (1:1000, Abcam #ab32058), Actin (1:4000, Sigma #A1978), SUMO2/3 (1:1000, Abcam #ab81371), Gapdh (1:1000, Cell Signaling #2118), Dnmt1 (1:1000, Abcam #ab13537), Dnmt3a (1:1000, Abcam #ab2850), Dnmt3b (1:1000, Abcam #ab2851), Tet2 (1:1000, Cell Signaling #36449S), Histone H3 (1:5000, Abcam #ab24834) were used according to standard protocols and suppliers' recommendations.

Cc1sc(C(=O)c2cncnc2NC2C[C@H](COS(N)(=O)=O)[C@@H](C)C2)cc1[C@@H]1NCCc2ccc(Cl)cc21 (stereo partly shown) [TAK-981]
emergence of EPI-L cell type [1]: Emergence of an EPI-L cell type expressing Pou3f1, Fgt5, Wnt3 | emergence of ESC-L cell type [1]: Emergence of an ESC-L cell type expressing Dppa3 | emergence of XEN-L cell type [1]: Emergence of a XEN-L cell type expressing Sox17, Gata4, Snail | pluripotency marker expression in spheroids [1]: Decrease of pluripotency markers Nanog, Essrb | formation of spheroid structures (mouse ESCs (ES R1 cells)): cells form three-dimensional adherent spheroids

Nc1ncn([C@@H]2O[C@H](CO)[C@@H](O)[C@H]2O)c(=O)n1 [5-azacytidine]
Nanog expression at D8 (Nanog): able to maintain a high level of Nanog

NS(=O)(=O)OC[C@H]1C[C@@H](Nc2ncncc2C(=O)c2ccn(Cc3cccc(Br)c3)n2)C[C@@H]1O [ML-792]
Dnmt3a expression (Dnmt3a): induction of Dnmt3a | whole genome methylated CG fraction [2]: gradual increase of the methylated CG fraction from D1 to D10 | level of SUMO conjugates (SUMO1, SUMO2/3 immunoblot) [3]: drop of SUMO conjugates at day 3 (D3) and D10 | formation of spheroid structures (mouse ESCs (ES R1 cells)): yielded large spheroid structures on adherent plates
